# Test results: PubChem BioAssay (NCI)
#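 Results reflect a 48-hour exposure of cells in 96-well plates to compound at five concentrations. GI50: concentration for 50% inhibition of growth. TGI is the concentration that stops growth completely.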
# Columns and labels:
# Assay in all cases: NCI-60 cell line screen, 48 h
# [1] = system: MDA-N
# [2] = system: MCF7 breast
# [3] = system: DU-145 prostate
# [4] = system: SK-MEL-2 melanoma
# [5] = system: A498 renal
# [6] = system: A549 NSCLC
# [7] = system: SK-OV-3 ovarian
# [8] = system: TK-10 renal
# [9] = system: OVCAR-4 ovarian
# [10] = system: HCT-116 colon
# [11] = system: SN12C renal
# [12] = system: T-47D breast
# [13] = system: MDA-MB-435
# [14] = system: SF-268 CNS
# [15] = system: PC-3 prostate
# [16] = system: HS 578T breast
# [17] = system: SW-620 colon
# [18] = system: UACC-62 melanoma
# [19] = system: ACHN renal
# [20] = system: NCI/ADR-RES ovarian
# [21] = system: KM12 colon
# [22] = system: SK-MEL-28 melanoma
# [23] = system: NCI-H460 lung
# [24] = system: NCI-H226 lung
# [25] = system: SNB-75 CNS
# [26] = system: COLO 205 colon
# [27] = system: HCC-2998 colon
# [28] = system: HCT-15 colon
# [29] = system: 786-0 renal
# [30] = system: HT29 colon
# [31] = system: OVCAR-5 ovarian
# [32] = system: M14 melanoma
# [33] = system: MDA-MB-231 breast
# [34] = system: MALME-3M melanoma
# [35] = system: EKVX NSCLC
# [36] = system: UACC-257 melanoma
# [37] = system: IGROV1 ovarian
# [38] = system: NCI-H23 lung
# [39] = system: RXF 393 renal
# [40] = system: SF-539 CNS
# [41] = system: NCI-H522 lung
# [42] = system: CAKI-1 renal
# [43] = system: K-562 leukemia
# [44] = system: CCRF-CEM leukemia
# [45] = system: BT-549 breast
# [46] = system: SR leukemia
# [47] = system: HOP-62 NSCLC
# [48] = system: SNB-19 CNS
# [49] = system: OVCAR-3 ovarian
# [50] = system: HOP-92 NSCLC
# [51] = system: HL-60(TB) leukemia
# [52] = system: LOX IMVI melanoma
# [53] = system: SF-295 CNS
# [54] = system: U251 CNS
# [55] = system: RPMI-8226 leukemia
# [56] = system: SK-MEL-5 melanoma
# [57] = system: UO-31 renal
# [58] = system: OVCAR-8 ovarian
# [59] = system: MOLT-4 leukemia
smiles,measurement,setting,value
CCCCCCCCCCCCCCCC1(OC)C[N+](C)(C)CCO1 (stereo not drawn),TGI,[1],4.99 µM
same,TGI,[2],0.901 µM
same,TGI,[3],5.9 µM
same,TGI,[4],7.63 µM
same,TGI,[5],67.5 µM
same,TGI,[6],3.45 µM
same,TGI,[7],21.8 µM
same,TGI,[8],5.33 µM
same,TGI,[9],5.96 µM
same,TGI,[10],3.38 µM
same,TGI,[11],3.94 µM
same,TGI,[12],33.6 µM
same,TGI,[13],3.63 µM
same,TGI,[14],5.04 µM
same,TGI,[15],6.21 µM
same,TGI,[16],7.22 µM
same,TGI,[17],26.4 µM
same,TGI,[18],7.64 µM
same,TGI,[19],5.8 µM
same,TGI,[20],41.7 µM
same,TGI,[21],1.96 µM
same,TGI,[22],6.33 µM
same,TGI,[23],5.57 µM
same,TGI,[24],3.6 µM
same,TGI,[25],0.445 µM
same,TGI,[26],2.58 µM
same,TGI,[27],6.18 µM
same,TGI,[28],28.9 µM
same,TGI,[29],2.05 µM
same,TGI,[30],2.56 µM
same,TGI,[31],6.08 µM
same,TGI,[32],3.13 µM
same,TGI,[33],4.8 µM
same,TGI,[34],4.7 µM
same,TGI,[35],5.76 µM
same,TGI,[36],4.85 µM
same,TGI,[37],3.16 µM
same,TGI,[38],2.81 µM
same,TGI,[39],2.39 µM
same,TGI,[40],3.49 µM
Cc1c(Cl)cccc1NC(=O)c1sc2nc3c(cc2c1N)CCCC3,GI50,[2],0.274 µM
same,TGI,[2],> 100 µM
same,GI50,[3],1.38 µM
same,TGI,[3],> 100 µM
same,GI50,[4],0.46 µM
same,TGI,[4],> 100 µM
same,GI50,[41],0.241 µM
same,TGI,[41],0.812 µM
same,GI50,[5],0.413 µM
same,TGI,[5],> 100 µM
same,GI50,[6],0.984 µM
same,TGI,[6],> 100 µM
same,GI50,[42],1.01 µM
same,TGI,[42],> 100 µM
same,GI50,[7],0.444 µM
same,TGI,[7],> 100 µM
same,GI50,[8],> 100 µM
same,TGI,[8],> 100 µM
same,GI50,[43],0.391 µM
same,TGI,[43],> 100 µM
same,GI50,[9],0.827 µM
same,TGI,[9],> 100 µM
same,GI50,[10],0.425 µM
same,TGI,[10],> 100 µM
same,GI50,[11],5.88 µM
same,TGI,[11],> 100 µM
same,GI50,[12],0.402 µM
same,TGI,[12],> 100 µM
same,GI50,[44],0.447 µM
same,TGI,[44],> 100 µM
same,GI50,[45],0.591 µM
same,TGI,[45],> 100 µM
same,GI50,[13],0.226 µM
same,TGI,[13],0.775 µM
same,GI50,[46],0.315 µM
same,TGI,[46],> 100 µM
same,GI50,[14],0.786 µM
same,TGI,[14],> 100 µM
same,GI50,[15],1.11 µM
same,TGI,[15],> 100 µM
same,GI50,[47],0.451 µM
same,TGI,[47],> 100 µM
same,GI50,[48],0.979 µM
same,TGI,[48],> 100 µM
same,GI50,[49],0.378 µM
same,TGI,[49],> 100 µM
same,GI50,[50],0.994 µM
same,TGI,[50],> 100 µM
same,GI50,[16],1.05 µM
same,TGI,[16],> 100 µM
same,GI50,[51],0.305 µM
same,GI50,[17],0.471 µM
same,TGI,[17],> 100 µM
same,GI50,[52],0.576 µM
same,TGI,[52],> 100 µM
same,GI50,[53],0.346 µM
same,TGI,[53],> 100 µM
same,GI50,[18],0.6 µM
same,TGI,[18],> 100 µM
same,GI50,[19],0.785 µM
same,TGI,[19],> 100 µM
same,GI50,[54],0.504 µM
same,TGI,[54],> 100 µM
same,GI50,[55],1.61 µM
same,TGI,[55],> 100 µM
same,GI50,[20],0.396 µM
same,TGI,[20],> 100 µM
same,GI50,[21],0.482 µM
same,TGI,[21],> 100 µM
same,TGI,[22],> 100 µM
same,GI50,[56],0.513 µM
same,TGI,[56],> 100 µM
same,GI50,[23],0.473 µM
same,TGI,[23],> 100 µM
same,GI50,[57],3.03 µM
same,TGI,[57],> 100 µM
same,GI50,[24],> 100 µM
same,TGI,[24],> 100 µM
same,GI50,[25],0.282 µM
same,TGI,[25],> 66.1 µM
same,GI50,[26],0.719 µM
same,TGI,[26],> 100 µM
same,GI50,[58],3.42 µM
same,TGI,[58],> 100 µM
same,GI50,[27],> 100 µM
same,TGI,[27],> 100 µM
same,GI50,[28],0.392 µM
same,TGI,[28],> 100 µM
same,GI50,[29],0.681 µM
same,TGI,[29],> 100 µM
same,GI50,[30],0.369 µM
same,TGI,[30],> 100 µM
same,GI50,[31],> 100 µM
same,TGI,[31],> 100 µM
same,GI50,[32],0.39 µM
same,TGI,[32],> 100 µM
same,GI50,[33],> 100 µM
same,TGI,[33],> 100 µM
same,GI50,[34],0.571 µM
same,TGI,[34],> 100 µM
same,GI50,[35],0.64 µM
same,TGI,[35],> 100 µM
same,GI50,[59],0.481 µM
same,TGI,[59],> 100 µM
same,GI50,[36],0.688 µM
same,TGI,[36],> 100 µM
same,GI50,[37],0.82 µM
same,TGI,[37],> 100 µM
same,GI50,[38],9.15 µM
same,TGI,[38],> 100 µM
same,GI50,[39],0.514 µM
same,TGI,[39],> 89.6 µM
same,GI50,[40],0.328 µM
